Tests used:
southern crabgrass [1] = experiment: Test Example 4: herbicidal effect by soil treatment (Table 19, symbol F); type: in vivo, southern crabgrass (Digitaria ciliaris); conditions: amount of applied herbicide 320 g/ha
Summary of the method: (§1)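 Scoring uses the grading scale of an earlier test, three weeks post-application. Treatment consists of spraying a diluted emulsion formulation across the surface of sterilized diluvial soil in which seeds are buried near 1.5 cm deep; boxes are kept in a greenhouse between 25° C. and 30° C.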

green foxtail [2] = experiment: Test Example 4: herbicidal effect by soil treatment (Table 19, symbol G); type: in vivo, green foxtail (Setaria viridis); conditions: amount of applied herbicide 320 g/ha
Summary of the method: as §1

barnyard grass [3] = experiment: Test Example 4: herbicidal effect by soil treatment (Table 19, symbol H); type: in vivo, barnyard grass (Echinochloa crus-galli); conditions: amount of applied herbicide 320 g/ha
Summary of the method: as §1

wild oat [4] = experiment: Test Example 4: herbicidal effect by soil treatment (Table 19, symbol I); type: in vivo, wild oat (Avena fatua); conditions: amount of applied herbicide 320 g/ha
Summary of the method: as §1

blackgrass [5] = experiment: Test Example 4: herbicidal effect by soil treatment (Table 19, symbol J); type: in vivo, blackgrass (Alopecurus myosuroides); conditions: amount of applied herbicide 320 g/ha
Summary of the method: as §1

Italian ryegrass [6] = experiment: Test Example 4: herbicidal effect by soil treatment (Table 19, symbol K); type: in vivo, Italian ryegrass (Lolium multiflorum); conditions: amount of applied herbicide 320 g/ha
Summary of the method: as §1

windgrass [7] = experiment: Test Example 4: herbicidal effect by soil treatment (Table 19, symbol L); type: in vivo, windgrass (Apera spica-venti); conditions: amount of applied herbicide 320 g/ha
Summary of the method: as §1

velvetleaf [8] = experiment: Test Example 4: herbicidal effect by soil treatment (Table 19, symbol M); type: in vivo, velvetleaf (Abutilon theophrasti); conditions: amount of applied herbicide 320 g/ha
Summary of the method: as §1

redroot pigweed [9] = experiment: Test Example 4: herbicidal effect by soil treatment (Table 19, symbol N); type: in vivo, redroot pigweed (Amaranthus retroflexus); conditions: amount of applied herbicide 320 g/ha
Summary of the method: as §1

lambsquarters [10] = experiment: Test Example 4: herbicidal effect by soil treatment (Table 19, symbol O); type: in vivo, lambsquarters (Chenopodium album); conditions: amount of applied herbicide 320 g/ha
Summary of the method: as §1

chickweed [11] = experiment: Test Example 4: herbicidal effect by soil treatment (Table 19, symbol P); type: in vivo, common chickweed (Stellaria media); conditions: amount of applied herbicide 320 g/ha
Summary of the method: as §1

persian speedwell [12] = experiment: Test Example 4: herbicidal effect by soil treatment (Table 19, symbol R); type: in vivo, Persian speedwell (Veronica persica); conditions: amount of applied herbicide 320 g/ha
Summary of the method: as §1

southern crabgrass [13] = experiment: Test Example 5: herbicidal effect by foliage application, plastic box (Table 20, symbol F); type: in vivo, southern crabgrass (Digitaria ciliaris); conditions: foliage application, 320 g/ha, evaluated three weeks after application
Summary of the method: (§2)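 Post-emergence foliar test in sterilized diluvial soil. Compound applied as water-diluted emulsion at a predetermined rate to 14-day-old plants; evaluation at three weeks.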

green foxtail [14] = experiment: Test Example 5: herbicidal effect by foliage application, plastic box (Table 20, symbol G); type: in vivo, green foxtail (Setaria viridis); conditions: foliage application, 320 g/ha, evaluated three weeks after application
Summary of the method: as §2

barnyard grass [15] = experiment: Test Example 5: herbicidal effect by foliage application, plastic box (Table 20, symbol H); type: in vivo, barnyard grass (Echinochloa crus-galli); conditions: foliage application, 320 g/ha, evaluated three weeks after application
Summary of the method: as §2

wild oat [16] = experiment: Test Example 5: herbicidal effect by foliage application, plastic box (Table 20, symbol I); type: in vivo, wild oat (Avena fatua); conditions: foliage application, 320 g/ha, evaluated three weeks after application
Summary of the method: as §2

blackgrass [17] = experiment: Test Example 5: herbicidal effect by foliage application, plastic box (Table 20, symbol J); type: in vivo, blackgrass (Alopecurus myosuroides); conditions: foliage application, 320 g/ha, evaluated three weeks after application
Summary of the method: as §2

Italian ryegrass [18] = experiment: Test Example 5: herbicidal effect by foliage application, plastic box (Table 20, symbol K); type: in vivo, Italian ryegrass (Lolium multiflorum); conditions: foliage application, 320 g/ha, evaluated three weeks after application
Summary of the method: as §2

windgrass [19] = experiment: Test Example 5: herbicidal effect by foliage application, plastic box (Table 20, symbol L); type: in vivo, windgrass (Apera spica-venti); conditions: foliage application, 320 g/ha, evaluated three weeks after application
Summary of the method: as §2

velvetleaf [20] = experiment: Test Example 5: herbicidal effect by foliage application, plastic box (Table 20, symbol M); type: in vivo, velvetleaf (Abutilon theophrasti); conditions: foliage application, 320 g/ha, evaluated three weeks after application
Summary of the method: as §2

redroot pigweed [21] = experiment: Test Example 5: herbicidal effect by foliage application, plastic box (Table 20, symbol N); type: in vivo, redroot pigweed (Amaranthus retroflexus); conditions: foliage application, 320 g/ha, evaluated three weeks after application
Summary of the method: as §2

lambsquarters [22] = experiment: Test Example 5: herbicidal effect by foliage application, plastic box (Table 20, symbol O); type: in vivo, lambsquarters (Chenopodium album); conditions: foliage application, 320 g/ha, evaluated three weeks after application
Summary of the method: as §2

chickweed [23] = experiment: Test Example 5: herbicidal effect by foliage application, plastic box (Table 20, symbol P); type: in vivo, common chickweed (Stellaria media); conditions: foliage application, 320 g/ha, evaluated three weeks after application
Summary of the method: as §2

persian speedwell [24] = experiment: Test Example 5: herbicidal effect by foliage application, plastic box (Table 20, symbol R); type: in vivo, Persian speedwell (Veronica persica); conditions: foliage application, 320 g/ha, evaluated three weeks after application
Summary of the method: as §2

CCCC(=O)Oc1c(C)nn(C)c(=O)c1-c1c(-c2ccc(OC)cc2)sc2ccc(C)cc12 [2-141]
F: southern crabgrass, herbicidal effect rating (southern crabgrass [1]): 0 (Herbicidal rate of 5% or less (almost no effect)) | G: green foxtail, herbicidal effect rating (green foxtail [2]): 0 (Herbicidal rate of 5% or less (almost no effect)) | H: barnyard grass, herbicidal effect rating (barnyard grass [3]): 0 (Herbicidal rate of 5% or less (almost no effect)) | I: wild oat, herbicidal effect rating (wild oat [4]): 0 (Herbicidal rate of 5% or less (almost no effect)) | J: blackgrass, herbicidal effect rating (blackgrass [5]): 0 (Herbicidal rate of 5% or less (almost no effect)) | K: Italian ryegrass, herbicidal effect rating (Italian ryegrass [6]): 0 (Herbicidal rate of 5% or less (almost no effect)) | L: windgrass, herbicidal effect rating (windgrass [7]): 0 (Herbicidal rate of 5% or less (almost no effect)) | M: velvetleaf, herbicidal effect rating (velvetleaf [8]): 0 (Herbicidal rate of 5% or less (almost no effect)) | N: redroot pigweed, herbicidal effect rating (redroot pigweed [9]): 0 (Herbicidal rate of 5% or less (almost no effect)) | O: lambsquarters, herbicidal effect rating (lambsquarters [10]): 0 (Herbicidal rate of 5% or less (almost no effect)) | P: chickweed, herbicidal effect rating (chickweed [11]): 0 (Herbicidal rate of 5% or less (almost no effect)) | R: persian speedwell, herbicidal effect rating (persian speedwell [12]): 2 (Herbicidal rate of 20% or more and less than 40%) | herbicidal effect on F: southern crabgrass (criteria 0-5) (southern crabgrass [13]): 0 (Herbicidal rate of 5% or less (almost no effect)) | herbicidal effect on G: green foxtail (criteria 0-5) (green foxtail [14]): 0 (Herbicidal rate of 5% or less (almost no effect)) | herbicidal effect on H: barnyard grass (criteria 0-5) (barnyard grass [15]): 0 (Herbicidal rate of 5% or less (almost no effect)) | herbicidal effect on I: wild oat (criteria 0-5) (wild oat [16]): 0 (Herbicidal rate of 5% or less (almost no effect)) | herbicidal effect on J: blackgrass (criteria 0-5) (blackgrass [17]): 0 (Herbicidal rate of 5% or less (almost no effect)) | herbicidal effect on K: Italian ryegrass (criteria 0-5) (Italian ryegrass [18]): 0 (Herbicidal rate of 5% or less (almost no effect)) | herbicidal effect on L: windgrass (criteria 0-5) (windgrass [19]): 0 (Herbicidal rate of 5% or less (almost no effect)) | herbicidal effect on M: velvetleaf (criteria 0-5) (velvetleaf [20]): 0 (Herbicidal rate of 5% or less (almost no effect)) | herbicidal effect on N: redroot pigweed (criteria 0-5) (redroot pigweed [21]): 0 (Herbicidal rate of 5% or less (almost no effect)) | herbicidal effect on O: lambsquarters (criteria 0-5) (lambsquarters [22]): 0 (Herbicidal rate of 5% or less (almost no effect)) | herbicidal effect on P: chickweed (criteria 0-5) (chickweed [23]): 5 (Herbicidal rate of 90% or more (almost completely withered)) | herbicidal effect on R: persian speedwell (criteria 0-5) (persian speedwell [24]): 5 (Herbicidal rate of 90% or more (almost completely withered))

Reference: patent US20230085307A1, “PYRIDAZINONE COMPOUND AND HERBICIDE” (NISSAN CHEMICAL CORPORATION, priority 2019, published 2023)
